According to patent US10874638B2, “Methods and compositions for modulating hormone levels” (priority 2014, dated 2020):
Read-outs that look alike come from different tables or passages of the source.

Assays:
[1] = system: ovariectomized mature female rats; assay: Ovariectomized mature female rat model; assay type: in vivo; settings: for uterine wet weight decrease after OVX surgery / bone density decrease caused by OVX (uCT trabecular bone in the femur, pQCT distal femur): daily for 8 weeks, 17α-ethynylestradiol 0.03 mg/kg/day; for uterine wet weight decrease after OVX surgery: Compound 1 0.01, 0.05, 0.25 mg/kg (all doses); for bone density decrease caused by OVX (uCT trabecular bone in the femur, pQCT distal femur): Compound 1 0.01, 0.05, 0.25 mg/kg
Method: Ovariectomized mature female rats are used to characterize primarily bone activity of the compositions provided herein or the individual SERM or SARM compounds. A sham group is used as control. The model can be run in either maintenance mode where the animals are dosed one day after the ovariectomy or restoration mode where the animals are dosed seven to eight weeks after the surgery. The rats are scanned by dual energy x-ray absorptiometry and sorted into experimental groups based upon femoral bone mineral content (BMC). Three dosages of testing compositions/compounds are administered orally once a day for 4, 8, or 12 weeks and estradiol and testosterone are administered subcutaneously to the reference groups. Animals received subcutaneous injections of fluorochrome markers for bone histomorphometric analysis. Alizarian Red S was prepared as a 3% solution and given at a dose of 30 mg/kg at the time of the baseline scan. Calcein was administered 10 days and 3 days prior to necropsy.
Approximately 24 hours after the last dose, blood is collected and the gastrocnemius muscle, plantaris muscle, uterus, clitoral glands, clitoris and inguinal fat pads were isolated, blotted and weighed individually. The left femur and lumbar vertebra L5 are wrapped in saline-soaked gauze and stored at −20° C. for biochemical analysis. The right femur and lumbar vertebrae L3-L4 are collected and stored in 70% ethanol for histomorphometry. The right tibia is collected in formalin for histological analysis. The left tibia is collected on dry ice and stored at −20° C. for measurement of alkaline phosphatase activity.
BMC, bone mineral density (BMD) and bone length are measured by pDEXA on an entire femur. The coefficient of variation for repeated measurement of the isolated femur is less than 0.4% for the BMC and the BMD measurements. […] Serum osteocalcin, a marker for bone turnover, and alkaline phosphatase derived from the tibial periosteum are also measured. Whole femurs are collected for biomechanical analysis and thawed at room temperature prior to testing. Peak load and peak displacement are measured directly from the load cell and the crosshead, respectively. Stiffness is calculated from the slope of the linear region of the load/displacement curve. Lumbar vertebra L5 is also measured in the mechanical testing for bone strength.
Bone histomorphometry is performed to indicate growth of the new bone during the study. The section from the lumbar vertebral bodies is used for histomorphometric indices of cancellous bone, while the sections of the femur mid-shafts are used for histomorphometric indices of cortical bone.
Body weight, gastrocnemius weight and plantaris weight changes are measured indicating anabolic activity of the testing compositions/compounds on skeletal muscle. Inguinal fat pad weight is used as a representative fat pad to assess the effects of the testing compounds on body fat. Clitoral gland and clitoral weights are measured to assess the virilizing effect of drugs.
In the maintenance node of this model, (5R,6S)-6-phenyl-5-[4-(2-pyrrolidin-1-ylethoxy)phenyl]-5,6,7,8-tetrahydronaphthalen-2-ol (Compound 1) was dosed daily at 0 (sham), 0 (OVX), 0.01, 0.05, and 0.25 mg/kg for 8 weeks and 17α-ethynylestradiol was dosed at 0.03 mg/kg/day. […] Micro-computerized tomography (uCT) measured the density and connectivity of the trabecular bone in the femur and pQCT measured at the distal femur.
In the restoration mode of this osteopenic female rat model, 4-(2(R)-(1(S)-hydroxyl-2,2,2-trifluoroethyl)-pyrrolidinyl)-2-trifluoromethylbenzonitrile (Compound 2, Formula I, R^1═CF3, R^2═R^3═H) was dosed at 0 (sham), 0 (OVX), 0.03, 0.3, and 3 mg/kg orally for 12 weeks. […] Compound 2 suppressed cancellous bone turnover while increasing trabecular bone volume and increasing bone mineral density at the lumbar spine.
In the same experiment of Compound 2, another SARM compound, ostarine, was dosed at 0.03, 0.3, and 3 mg/kg/day orally for 12 weeks.

postmenopausal women = settings: cited from earlier work
[2] = system: intact cynomolgus male and female monkeys; assay: Intact cynomolgus monkey model; assay type: in vivo; settings: Day 90
Method: Intact cynomolgus male and female monkeys are used to assess of the effects of the compositions provided herein or the individual SERM or SARM compounds on hypothalamic-pituitary-gonadal axis and lipid profile. All animals are dosed via oral or nasol gavage once daily for consecutive days with either vehicle or testing articles of different doses. The first day of dosing is designated Day 1 for all animals. Blood samples are collected for analysis of LH, FSH, T, Estrodiol, total cholesterol, triglycerides, cortisol, and coagulation parameters included prothrombin time (PT) and activated partial thromboplastin time on Days −3 and end of the study.
In this model, Compound 2 was dosed at 0, 5, 50, 150, and 450 mg/kg/day for 14 days. […] In a separate study, the compound was dosed at 0, 3, 10, 30, 120, and 500 mg/kg/day for 30 days. […] Serum testosterone was suppressed in males as indicated by lower 75th, 50th, and 25th percentile values in samples from treated monkeys than vehicle controls.
In this model, Compound 1 was dosed at 0, 1, 5, and 15 mg/kg/day for 3 months.

ER = settings: read-out: IC50 binding affinity to ER; cited from earlier work
healthy male subjects = assay type: in vivo, human
Method: In a random, double-blind, placebo controlled study, Compound 1 was given orally to healthy male subjects age from 18 to 45 years. Subjects received either placebo or Compound 1 under fasted/fed conditions at single escalating doses of 0, 1, 3, 10, 30, and 100 mg. Total serum T level was determined at days 0, 1, 7, 14, 21, and 28.

[3] = system: intact cynomolgus male and female monkeys; assay: Intact cynomolgus monkey model; assay type: in vivo; settings: females, Day 90
[4] = biological target: T1, 5α-reductase type I isoenzyme (Homo sapiens, UniProt P18405); settings: cited from earlier work
T1 sequence (P18405 1-259): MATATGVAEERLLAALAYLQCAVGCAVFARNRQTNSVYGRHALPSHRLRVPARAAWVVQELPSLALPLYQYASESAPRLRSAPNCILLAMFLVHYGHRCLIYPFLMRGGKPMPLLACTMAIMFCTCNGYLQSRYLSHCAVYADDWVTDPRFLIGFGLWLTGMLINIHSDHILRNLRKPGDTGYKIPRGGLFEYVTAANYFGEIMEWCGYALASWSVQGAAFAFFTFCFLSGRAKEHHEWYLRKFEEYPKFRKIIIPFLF

prostate DHT level = settings: in clinic; up to; cited from earlier work
[5] = system: orchidectomized male Sprague-Dawley rat; assay: Orchidectomized mature male rat model; settings: based on AUC-activity relationship analysis
[6] = 100 mg fasted, single oral dose
[7] = OVX rat, subcutaneous reference

## 17α-ethynylestradiol
[1]; maintenance mode
  uterine wet weight decrease after OVX surgery: completely blocked
  bone density decrease caused by OVX (uCT trabecular bone in the femur, pQCT distal femur): prevent the bone density decrease

## Oc1ccc2c(c1)CC[C@H](c1ccccc1)[C@@H]2c1ccc(OCCN2CCCC2)cc1 [Compound 1, (5R,6S)-6-phenyl-5-[4-(2-pyrrolidin-1-ylethoxy)phenyl]-5,6,7,8-tetrahydronaphthalen-2-ol]
Postmenopausal women
  beneficial effects in postmenopausal women: reduced risks of nonvertebral and vertebral fractures, ER-positive breast cancer, coronary heart disease, and stroke
[2]; especially in males, 1, 5, 15 mg/kg/day for 3 months
  triglycerides: significant increase
[2]; females, 15 mg/kg/day for 3 months
  serum cholesterol increase, of the corresponding Day −7 values: […]
[2]; males, 1, 5, 15 mg/kg/day for 3 months
  serum cholesterol: did not change
ER
  IC50: […]
Healthy male subjects; 1 mg fasted, single oral dose
  Changes of T levels from baseline, Day 1 2 h: 9.9%
  Changes of T levels from baseline, Day 29: 18%
Healthy male subjects; 3 mg fasted, single oral dose
  Changes of T levels from baseline, Day 1 2 h: 13%
  Changes of T levels from baseline, Day 22: 68%
  Changes of T levels from baseline, Day 29: 50%
Healthy male subjects; 10 mg fasted, single oral dose
  Changes of T levels from baseline, Day 1 2 h: −0.5%
  Changes of T levels from baseline, Day 22: 81%
  Changes of T levels from baseline, Day 29: 29%
Healthy male subjects; 30 mg fasted, single oral dose
  Changes of T levels from baseline, Day 1 2 h: −6.9%
  Changes of T levels from baseline, Day 1 12 h: −64%
  Changes of T levels from baseline, Day 8: 39%
  Changes of T levels from baseline, Day 15: 71%
  Changes of T levels from baseline, Day 29: 81%
Healthy male subjects; [6]
  Changes of T levels from baseline, Day 1 12 h: −50%
  Changes of T levels from baseline, Day 8: 84%
  Changes of T levels from baseline, Day 15: 104%
  Changes of T levels from baseline, Day 22: 92%
Healthy male subjects; 100 mg fed, single oral dose
  Changes of T levels from baseline, Day 1 12 h: −48%
  Changes of T levels from baseline, Day 8: 86%
  Changes of T levels from baseline, Day 15: 89%
  Changes of T levels from baseline, Day 29: 91%
Healthy male subjects; men
  stimulation of T production (pharmacokinetic/pharmacodynamic profile in men): superior potency and prolonged mechanism of action
Healthy male subjects; single escalating oral doses 1 to 100 mg
  total serum T level: dose related increase
Healthy male subjects; single oral dose, healthy male subjects
  duration of the elevation of T level: […]
[1]; maintenance mode, 8 weeks daily dosing
  bone strength on the lumbar vertebrae: maintained the bone strength
[1]; maintenance mode
  uterine wet weight decrease after OVX surgery: block the decrease but at much less extend
  bone density decrease caused by OVX (uCT trabecular bone in the femur, pQCT distal femur): prevent the bone density decrease
[3]; 1 mg/kg/day for 3 months
  serum cholesterol increase, of the corresponding Day −7 values: 26%
[3]; 5 mg/kg/day for 3 months
  serum cholesterol increase, of the corresponding Day −7 values: 16%

## CCC(=O)O[C@H]1CC[C@H]2[C@@H]3CCC4=CC(=O)CC[C@]4(C)[C@H]3CC[C@]12C [Testosterone propionate]
[1]; OVX rat, 1 mg/kg daily dose
  clitoral gland and clitoral weights (virilizing effect): significantly increases

## C[C@]12CC[C@H]3[C@@H](CCC4=CC(=O)CC[C@@]43C)[C@@H]1CC[C@@H]2O [Testosterone, testosterone]
[1]; [7]
  femur bending stiffness: increases
  femur bending strength: does not significantly increase

## CC(C)(C)NC(=O)[C@H]1CC[C@H]2[C@@H]3CC[C@H]4NC(=O)C=C[C@]4(C)[C@H]3CC[C@]12C [finasteride, N-(1,1-dimethylethyl)-3-oxo-(5α,17β)-4-azaandrost-1-ene-17-carboxamide]
[4]
  IC50: 42 nM
Prostate DHT level
  reduction of prostate DHT level: 85-90%

## C[C@](O)(COc1ccc(C#N)cc1)C(=O)Nc1ccc(C#N)c(C(F)(F)F)c1 [ostarine]
[5]
  potency relative to Compound 2 (fold less): ~10 fold
[1]; restoration mode, higher exposure = decreased potency
  exposure at maximal efficacy relative to Compound 2: ~10 fold
